Data reported in patent publication US8658592B2, “Biologically active peptides and their new uses” (priority 2005, dated 2014).
Marks after values point to notes of the source that are not given here. Ends that are not written are not given here. Peptide text beside a SMILES is read from it.

How the values were obtained:
[1] = system: carrageenin induced foot swelling; test: carrageenin induced foot swelling in rats; format: in vivo, Wistar rats
Method: Wistar rats were divided randomly into DXM group (0.2 mg/kg/day), saline control group (1 ml/day), and three dosages of CMS-030 groups (2, 10, 20 μg/ml/day). All of the drugs were diluted to 0.5 ml with saline, and were administered intraperitoneally (i.p) daily. Two weeks after drug administration, 0.15 ml of 1% carrageenin saline solution was applied to the right foot by subcutaneous injection. 0.5 hr later, the circumference of right foot was measured precisely, and foot swelling was calculated by subtracting the pre-challenge circumference from the post-challenge value Inhibition index (%)=(foot swelling of saline control group−foot swelling of drug group)/foot swelling of saline control group×100%.

[2] = system: human hepatitis B virus (HBV), 2.2.15 cell line; test: Test 2: inhibition of HBV-DNA in 2.2.15 cells (fluorescence quantitative PCR); format: cell-based; settings: 160 μg/ml
Method: The preparation and incubation of cell suspension was repeated as in test 1 above, but at the peptide concentration of 160 μg/ml.

[3] = system: human hepatitis B virus (HBV), 2.2.15 cell line; test: Test 1: inhibition of HBsAg and HBeAg in 2.2.15 cells (ELISA); format: cell-based; settings: 400 μg/ml
Method: 2.2.15 cells at log phase were harvested and adjusted to 2×10^6/ml with MEM (containing 10% fetal bovine serum, […]). The suspension was inoculated on a 24-well culture plate with 1.5 ml per well, and incubated at 37° C., 5% CO2 for 48 hours for attachment. The peptides were added to the final concentration of 400 μg/ml with 3 parallel wells per sample. One set of blank control (3 wells) was also prepared, in which the peptide was replaced with culture medium. The plate was incubated at 37° C. for 4 days, the culture medium was then exchanged with freshly prepared medium (of the same composition as the original), and the plate was incubated for a further 4 days. By the end of incubation, the supernatants of the culture were collected, and the titers of HBsAg and HBeAg were determined by ELISA method according to the instruction of the detection kit manufacturer.

[4] = system: duck hepatitis B virus (DHBV); test: Chongqing duck hepatitis B animal model: serum DHBV DNA and DHBsAg; format: in vivo, Chongqing ducks
Method: CMS-017 dissolved in saline was applied to Chongqing duck hepatitis B animal model by intramuscular injection for 28 days. The serum levels of DHBV DNA and DHBsAg (duck hepatitis B surface antigen) were observed by serum dot-blot hybridization and ELISA respectively and compared with blank control.
0.1 ml DHBV DNA positive serum (5×10^7 copies/ml) was inoculated into the abdominal cavity of one-day old Chongqing ducks to set up the hepatitis animal model. 10 days after inoculation, blood samples were collected from the external jugular vein and success of infection was confirmed by dot-blot hybridization with DHBV DNA probe labeled with digoxi^[3].
2) CMS-017 group (n=12): 200 μg/kg/day CMS-017 (dissolved in 1 ml normal saline) applied by intramuscular injection, once per day.
The treatment lasted for 4 weeks, and observation continued for another one week after termination of treatment. 1 ml blood samples were drawn from the external jugular vein on days 0, 7, 14, 21, 28, and 35 from the start of treatment. The sera were isolated^[4] and stored at −20° C. until analysis.
DHBV DNA probe was fluorescent-labeled according to the labeling kit protocol from the manufacturer (Roche Co.). Duck sera were dot-blotted (2 dot per sample) onto nitrocellulose membrane and hybridized with fluorescent-labeled probe for DHBV DNA quantitation^[3]. DHBV DNA 40 μl+DHBsAg 100 μl was used as internal standard. CDP-Star fluorimetry reagent was used for amplification of the fluorescence. Vuego Scan (Brisa-620st) scanner was used for film scanning, and Discovery Series Quantity One software for quantitative analysis of the blots. The blot value was described as “volume” (volume=intensity×mm^2)
DHBsAg level was determined by ELISA method^[5-8], and the O.D value was obtained by ELISA reader (Bio-TEK Co.) at 490 nm.

[5] = 0.5 hr after carrageenin, 0.2 mg/kg/d
[6] = Week 5 (one week after termination of treatment)
[7] = human hepatitis B virus, 2.2.15 cell line, 48 h

## C[C@@H]1C[C@H]2[C@@H]3CCC4=CC(=O)C=C[C@]4(C)[C@@]3(F)[C@@H](O)C[C@]2(C)[C@@]1(O)C(=O)CO [DXM, Dexamethasone]
[1]; [5]
  Inhibition Index 0.5 hr: 63.0** %
  Swelling 0.5 hr: 2.74 ± 0.10 cm
[1]; right foot, 0.2 mg/kg/d i.p., two weeks
  Pre-challenge circumference: 2.49 ± 0.05 cm

## IVTNTT [CMS-017, Ile-Val-Thr-Asn-Thr-Thr]
[2]; 2.2.15 cells
  % HBV-DNA inhibition: 90.8%*
[3]; 2.2.15 cells, 8 days
  Inhibition ratio to HBeA: 62.2%*
  Inhibition ratio to HBsA:: 68.6%*
[4]; Pre-treatment, 200 μg/kg/day i.m. group
  Serum DHBV DNA titer: 2207.0 ± 237.5 volume
[4]; Pre-treatment, 200 μg/kg/day i.m. group, 490 nm
  Serum DHBsAg O.D. value: 0.928 ± 0.402
[4]; Week 1, 200 μg/kg/day i.m.
  Serum DHBV DNA titer: 1991.8 ± 378.9 volume
  Serum DHBsAg O.D. value: 0.761 ± 0.328
[4]; Week 2, 200 μg/kg/day i.m.
  Serum DHBV DNA titer: 1925.0 ± 549.9 volume
  Serum DHBsAg O.D. value: 0.668 ± 0.310
[4]; Week 3, 200 μg/kg/day i.m.
  Serum DHBV DNA titer: 1743.9 ± 555.0 volume
  Serum DHBsAg O.D. value: 0.551 ± 0.268
[4]; Week 4, 200 μg/kg/day i.m.
  Serum DHBV DNA titer: 1544.9 ± 389.7 volume
  Serum DHBsAg O.D. value: 0.479 ± 0.279
[4]; [6]
  Serum DHBV DNA titer: 1742.7 ± 437.0 volume
  Serum DHBsAg O.D. value: 0.488 ± 0.182
[4]; upon discontinuation of treatment for 7 days
  rebound of serum DHBV DNA and DHBsAg: rebound was not observed

## C[C@H](N)C(=O)N[C@@H](C)C(=O)N[C@@H](Cc1ccccc1)C(=O)O [CMS-023, Ala Ala Phe] (H-Ala-Ala-Phe-OH; N-terminus and C-terminus assumed)
[2]; human hepatitis B virus, 2.2.15 cell line
  % HBV-DNA inhibition: 70.8%*
[3]; [7]
  Inhibition ratio to HBeA: 53.7%*
  Inhibition ratio to HBsA:: 58.4%*
